We go through 17 compounds from patent US12023319B2, “Carboxylic acid aromatic amides” (priority 2016, dated 2024).

For orientation: pIC50 means the IC50 on a negative log10 scale, so that one unit is a factor of ten.

The target in assay [1] is T1, human Bradykinin B1 receptor (Homo sapiens, UniProt P46663).
T1 construct: host or cells: CHO-K1
T1 sequence (P46663 1-353): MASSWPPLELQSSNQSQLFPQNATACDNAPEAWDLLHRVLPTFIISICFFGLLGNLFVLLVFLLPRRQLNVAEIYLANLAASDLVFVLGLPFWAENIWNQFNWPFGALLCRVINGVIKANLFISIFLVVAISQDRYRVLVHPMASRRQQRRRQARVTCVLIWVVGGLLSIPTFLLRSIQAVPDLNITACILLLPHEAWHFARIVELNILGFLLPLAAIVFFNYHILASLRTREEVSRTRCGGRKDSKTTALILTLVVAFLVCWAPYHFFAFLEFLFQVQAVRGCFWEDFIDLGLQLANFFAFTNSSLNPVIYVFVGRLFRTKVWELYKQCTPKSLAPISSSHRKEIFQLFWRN
Description: Calcium flux assay (FLIPR), CHO-K1 cells expressing human Bradykinin B1 receptor, absence of 0.1% BSA (hB1 free IC50). The format is cell-based. The conditions noted are these: absence of 0.1% BSA in assay buffer. The procedure, abridged:
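Peak FLIPR fluorescence (538 nm) after B1 agonist peptide addition gave IC50s, scaled between DMSO and full block by 20 µM Lys-(Des-Arg-Leu)-Bradykinin. Compounds were preincubated 30 min at 28° C with calcium-dye-loaded CHO-K1 cells expressing human B1, at 8 concentrations in triplicate, 1% DMSO final.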
Background: Calcium flux is commonly read through the fluorescence of an indicator in the cells.

The target of assay [2] is T2, native human Bradykinin B1 receptor (Homo sapiens, UniProt P46663).
T2 construct: which express native human Bradykinin B1 receptor after induction with human IL-1beta; Coriell Institute; host or cells: IMR-90 human foetal lung fibroblasts, induced with human IL-1beta
T2 sequence (P46663 1-353): T1 sequence (P46663 1-353)
Description: Calcium flux assay (FLIPR) with IMR-90 human fibroblasts expressing Bradykinin B1 receptor after IL-1beta induction (hB1 IMR-90). The format is cell-based. The conditions noted are these: IMR-90 human fibroblasts after IL-1beta induction, read-out: hB1 IMR90 IC50. As for the experimental part:
Calcium Flux Assay (FLIPR) with Human Fibroblasts Expressing Bradykinin B1 Receptor (hB1 IMR-90)
The Calcium flux Assay was carried out utilising IMR-90 human foetal lung fibroblasts (American Type Culture Collection, Rockville, MD; and Coriell Institute, Camden, New Jersey), which express native human Bradykinin B1 receptor after induction with human IL-1beta.
The fibroblasts were cultured in complete growth media comprised of Dulbecco's modified Eagle's medium (DMEM; Sigma) containing 10% foetal bovine serum, 4 mM L-glutamine, and 1% nonessential amino acids. The cells were maintained in a humidified atmosphere with 5% CO2 at 37° C. and were sub-cultured at a ratio of 1:3, every other day.
For the assay, IMR-90 fibroblasts were harvested using TrypLE Express (GIBCO/Invitrogen) and seeded into 384-well plates (Corning Cellbinding Surface, Cat. 3683) at a density of 15000 cells/well. The following day, cells were treated with 0.35 ng/mL human IL-1beta in 10% FBS/MEM for 3 h to up-regulate Bradykinin B1 receptor. Induced cells were loaded with fluorescent calcium indicator by incubation with 2.5 μM Fluo-4/AM (Invitrogen) at 37° C., 5% CO2 for 2 h in the presence of 2.5 mM probenecid in 1% FBS/MEM. […] Compound examples were assayed at 8 concentrations in triplicate. […] A peptide antagonist Lys-(Des-Arg-Leu)-Bradykinin (Bachem, Brackley) at 20 µM was used to determine the full inhibition as control. IC50 values were determined by the same way described for the FLI PR assay with recombinant cells.

pIC50: −log10 of the molar value.

Turning to `CC(C)n1cc(-c2ccc(NC(=O)C3(c4ccc(C(F)(F)F)cc4F)CC3)cc2C(=O)O)cn1` [Example 70, 5-[({1-[2-Fluoro-4-(trifluoromethyl)phenyl]cyclopropyl}carbonyl)amino]-2-[1-(propan-2-yl)-1H-pyrazol-4-yl]benzoic acid], the figures for the negative-log IC50 (pIC50) in assay [1] and in assay [2] were 7.47 and 7.31, respectively.
Consider `CC(C)(C)n1cc(-c2ccc(NC(=O)C3(c4ccc(OC(F)(F)F)cc4F)CC3)cc2C(=O)O)cn1` [Example 73, 2-(1-tert-Butyl-1H-pyrazol-4-yl)-5-[({1-[2-fluoro-4-(trifluoromethoxy)phenyl]cyclopropyl}carbonyl)amino]benzoic acid], for which the values for the pIC50 in assay [1] and in assay [2] were 7.68 and 7.36, respectively.
Turning to `CC(C)Cn1cc(-c2ccc(NC(=O)C3(c4ccc(C(F)(F)F)cc4F)CC3)cc2C(=O)O)cn1` [Example 74, 5-[({1-[2-Fluoro-4-(trifluoromethyl)phenyl]cyclopropyl}carbonyl)amino]-2-[1-(2-methylpropyl)-1H-pyrazol-4-yl]benzoic acid], the figures for the pIC50 in assay [1] and in assay [2] were 7.77 and 7.82, respectively.
Regarding `CC(C)Cn1cc(-c2ccc(NC(=O)C3(c4ccc(OC(F)(F)F)cc4F)CC3)cc2C(=O)O)cn1` [Example 75, 5-[({1-[2-Fluoro-4-(trifluoromethoxy)phenyl]cyclopropyl}carbonyl)amino]-2-[1-(2-methylpropyl)-1H-pyrazol-4-yl]benzoic acid], the negative-log IC50 (pIC50) in assay [1] was 7.96; in assay [2] it was 7.74.
Turning to `CC(C)(C)Cn1cc(-c2ccc(NC(=O)C3(c4ccc(OC(F)(F)F)cc4F)CC3)cc2C(=O)O)cn1` [Example 77, 2-[1-(2,2-Dimethylpropyl)-1H-pyrazol-4-yl]-5-[({1-[2-fluoro-4-(trifluoromethoxy)phenyl]cyclopropyl}carbonyl)amino]benzoic acid], the values for the pIC50 in assay [1] and in assay [2] were 7.77 and 7.89, respectively.
On the same counts, the results for `CC(C)n1cc(-c2c(F)cc(NC(=O)C3(c4ccc(C(F)(F)F)cc4F)CC3)cc2C(=O)O)cn1` [Example 88, 3-Fluoro-5-[({1-[2-fluoro-4-(trifluoromethyl)phenyl]cyclopropyl}carbonyl)amino]-2-[1-(propan-2-yl)-1H-pyrazol-4-yl]benzoic acid] are 7.49 and 8.00.
For `CC(C)n1cc(-c2c(F)cc(NC(=O)C3(c4ccc(OC(F)(F)F)cc4F)CC3)cc2C(=O)O)cn1` [Example 89, 3-Fluoro-5-[({1-[2-fluoro-4-(trifluoromethoxy)phenyl]cyclopropyl}carbonyl)amino]-2-[1-(propan-2-yl)-1H-pyrazol-4-yl]benzoic acid], in that order: 7.49 and 7.85.
As for `CC(C)(C)c1cn(-c2c(F)cc(NC(=O)C3(c4ccc(OC(F)(F)F)cc4F)CC3)cc2C(=O)O)cn1` [Example 91, 2-(4-tert-Butyl-1H-imidazol-1-yl)-3-fluoro-5-[({1-[2-fluoro-4-(trifluoromethoxy)phenyl]cyclopropyl}carbonyl)amino]benzoic acid], the pIC50 in assay [1] is 7.70; in assay [2], 8.12.
Turning to `O=C(O)c1cc(NC(=O)C2(c3ccc(OC(F)(F)F)cc3F)CC2)cc(F)c1-c1ccc(C(F)F)nc1` [Example 95, 2-[6-(Difluoromethyl)pyridin-3-yl]-3-fluoro-5-[({1-[2-fluoro-4-(trifluoromethoxy)phenyl]cyclopropyl}carbonyl)amino]benzoic acid], the results for the negative-log IC50 (pIC50) in assay [1] and in assay [2] were 7.89 and 7.68, respectively.
In the case of `CCC(F)(F)c1ccc(-c2c(F)cc(NC(=O)C3(c4ccc(C(F)(F)F)cc4F)CC3)cc2C(=O)O)cn1` [Example 96, 2-[6-(1,1-Difluoropropyl)pyridin-3-yl]-3-fluoro-5-[({1-[2-fluoro-4-(trifluoromethyl)phenyl]cyclopropyl}carbonyl)amino]benzoic acid], the pIC50 was 8.09 in assay [1] and 7.60 in assay [2].
For the compound `CCC(F)(F)c1ccc(-c2c(F)cc(NC(=O)C3(c4ccc(OC(F)(F)F)cc4F)CC3)cc2C(=O)O)cn1` [Example 97, 2-[6-(1,1-Difluoropropyl)pyridin-3-yl]-3-fluoro-5-[({1-[2-fluoro-4-(trifluoromethoxy)phenyl]cyclopropyl}carbonyl)amino]benzoic acid], the negative-log IC50 (pIC50) is 8.00 in assay [1] and 7.60 in assay [2].
As for `O=C(O)c1cc(NC(=O)C2(c3ccc(C(F)(F)F)cc3F)CC2)cc(Cl)c1-c1cnn(C2CCC2)c1` [Example 100, 3-Chloro-2-(1-cyclobutyl-1H-pyrazol-4-yl)-5-[({1-[2-fluoro-4-(trifluoromethyl)phenyl]cyclopropyl}carbonyl)amino]benzoic acid], the pIC50 is 8.05 in assay [1] and 7.89 in assay [2].
Take `O=C(O)c1cc(NC(=O)C2(c3ccc(OC(F)(F)F)cc3F)CC2)cc(Cl)c1-c1cnn(C2CCC2)c1` [Example 101, 3-Chloro-2-(1-cyclobutyl-1H-pyrazol-4-yl)-5-[({1-[2-fluoro-4-(trifluoromethoxy)phenyl]cyclopropyl}carbonyl)amino]benzoic acid]: the values for the pIC50 in assay [1] and in assay [2] were 8.46 and 8.26, respectively.
In the case of `CCC(F)(F)c1ccc(-c2c(Cl)cc(NC(=O)C3(c4ccc(C(F)(F)F)cc4F)CC3)cc2C(=O)O)cn1` [Example 105, 3-Chloro-2-[6-(1,1-difluoropropyl)pyridin-3-yl]-5-[({1-[2-fluoro-4-(trifluoromethyl)phenyl]cyclopropyl}carbonyl)amino]benzoic acid], the figures for the pIC50 in assay [1] and in assay [2] were 7.77 and 7.13, respectively.
On to `CCC(F)(F)c1ccc(-c2c(Cl)cc(NC(=O)C3(c4ccc(OC(F)(F)F)cc4F)CC3)cc2C(=O)O)cn1` [Example 106, 3-Chloro-2-[6-(1,1-difluoropropyl)pyridin-3-yl]-5-[({1-[2-fluoro-4-(trifluoromethoxy)phenyl]cyclopropyl}carbonyl)amino]benzoic acid], for which the negative logarithm of the IC50 (pIC50) was 8.08 in assay [1] and 7.46 in assay [2].
For the compound `Cc1cc(NC(=O)C2(c3ccc(C(F)(F)F)cc3F)CC2)cc(C(=O)O)c1-c1cnn(C2CCC2)c1` [Example 107, 2-(1-Cyclobutyl-1H-pyrazol-4-yl)-5-[({1-[2-fluoro-4-(trifluoromethyl)phenyl]cyclopropyl}carbonyl)amino]-3-methylbenzoic acid], the pIC50 is 7.66 in assay [1] and 7.44 in assay [2].
Take `Cc1cc(NC(=O)C2(c3ccc(OC(F)(F)F)cc3F)CC2)cc(C(=O)O)c1-c1cnn(C2CCC2)c1` [Example 108, 2-(1-Cyclobutyl-1H-pyrazol-4-yl)-5-[({1-[2-fluoro-4-(trifluoromethoxy)phenyl]cyclopropyl}carbonyl)amino]-3-methylbenzoic acid]: the negative-log IC50 (pIC50) in assay [1] was 7.85; in assay [2] it was 7.89.
